Assay results from ChEMBL document CHEMBL2074568, “Characterization of the transport properties of human multidrug resistance protein 7 (MRP7, ABCC10)” (Mol Pharmacol, 2003).

Legend:
Type in all cases: functional, cell membranes
Set-up in all cases: scale not given: the % may be the effect or the level left
[1] = target: T1, ATP-binding cassette sub-family C member 10 (Homo sapiens) (UniProt Q5T3U5); experiment: TP_TRANSPORTER: inhibition of E217betaG uptake (E217betaG: 1 uM, 16alpha,17beta-Estriol 3-sulfate: 100 uM) in membrane vesicles from MRP7-expressing HEK293 cells; conditions: Membrane vesicle
T1 sequence (whole entry): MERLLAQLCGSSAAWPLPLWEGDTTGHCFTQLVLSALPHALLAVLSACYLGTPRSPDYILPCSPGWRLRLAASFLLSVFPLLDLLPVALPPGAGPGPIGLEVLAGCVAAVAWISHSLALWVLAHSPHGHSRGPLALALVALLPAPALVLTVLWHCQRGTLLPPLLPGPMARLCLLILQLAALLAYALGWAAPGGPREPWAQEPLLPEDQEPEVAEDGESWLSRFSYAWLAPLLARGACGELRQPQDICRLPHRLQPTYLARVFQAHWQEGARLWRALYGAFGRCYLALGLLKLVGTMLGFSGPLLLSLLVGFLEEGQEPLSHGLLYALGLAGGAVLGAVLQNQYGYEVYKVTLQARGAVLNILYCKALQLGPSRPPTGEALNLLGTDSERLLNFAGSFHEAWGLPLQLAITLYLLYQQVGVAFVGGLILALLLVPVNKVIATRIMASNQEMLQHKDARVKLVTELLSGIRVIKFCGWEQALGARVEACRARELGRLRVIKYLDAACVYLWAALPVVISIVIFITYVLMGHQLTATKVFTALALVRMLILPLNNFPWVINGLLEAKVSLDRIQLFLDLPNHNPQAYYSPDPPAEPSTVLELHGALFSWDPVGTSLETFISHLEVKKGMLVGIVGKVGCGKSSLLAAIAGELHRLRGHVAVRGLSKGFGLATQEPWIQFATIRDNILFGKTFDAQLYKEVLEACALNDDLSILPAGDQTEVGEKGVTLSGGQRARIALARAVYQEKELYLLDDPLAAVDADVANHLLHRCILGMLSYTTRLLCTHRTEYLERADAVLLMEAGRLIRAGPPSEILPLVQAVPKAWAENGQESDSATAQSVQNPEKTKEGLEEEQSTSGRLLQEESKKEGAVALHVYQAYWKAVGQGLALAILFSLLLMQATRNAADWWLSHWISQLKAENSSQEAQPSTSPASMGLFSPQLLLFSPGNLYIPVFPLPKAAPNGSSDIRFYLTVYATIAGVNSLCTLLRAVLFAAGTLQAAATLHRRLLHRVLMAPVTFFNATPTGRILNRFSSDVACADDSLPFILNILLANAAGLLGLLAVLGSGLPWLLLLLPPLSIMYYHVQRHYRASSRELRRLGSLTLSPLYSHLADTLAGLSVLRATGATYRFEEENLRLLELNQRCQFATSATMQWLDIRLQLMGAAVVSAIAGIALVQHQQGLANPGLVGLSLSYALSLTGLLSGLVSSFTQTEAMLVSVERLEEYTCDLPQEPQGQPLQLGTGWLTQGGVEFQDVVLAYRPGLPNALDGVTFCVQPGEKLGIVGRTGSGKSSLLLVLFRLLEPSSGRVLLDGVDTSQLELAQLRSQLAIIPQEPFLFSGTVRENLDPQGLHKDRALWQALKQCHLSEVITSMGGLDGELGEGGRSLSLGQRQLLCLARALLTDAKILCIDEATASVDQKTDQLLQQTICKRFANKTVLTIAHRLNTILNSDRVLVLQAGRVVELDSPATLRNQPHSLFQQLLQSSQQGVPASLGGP

[2] = target: T1, ATP-binding cassette sub-family C member 10 (Homo sapiens); experiment: TP_TRANSPORTER: inhibition of E217betaG uptake (E217betaG: 1 uM, LTC4:1uM) in membrane vesicles from MRP7-expressing HEK293 cells; conditions: Membrane vesicle
[3] = target: T1, ATP-binding cassette sub-family C member 10 (Homo sapiens); experiment: TP_TRANSPORTER: inhibition of E217betaG uptake (E217betaG: 1 uM, Glycocholate: 100uM) in membrane vesicles from MRP7-expressing HEK293 cells; conditions: Membrane vesicle
[4] = target: T1, ATP-binding cassette sub-family C member 10 (Homo sapiens); experiment: TP_TRANSPORTER: inhibition of E217betaG uptake (E217betaG: 1 uM, 16alpha,17beta-Estriol 16-(beta-D-glucuronide): 100 uM) in membrane vesicles from MRP7-expressing HEK293 cells; conditions: Membrane vesicle
[5] = target: T1, ATP-binding cassette sub-family C member 10 (Homo sapiens); experiment: TP_TRANSPORTER: inhibition of E217betaG uptake (E217betaG: 1 uM, E2 3SO4 17betaG: 100uM) in membrane vesicles from MRP7-expressing HEK293 cells; conditions: Membrane vesicle
[6] = target: T1, ATP-binding cassette sub-family C member 10 (Homo sapiens); experiment: TP_TRANSPORTER: inhibition of E217betaG uptake (E217betaG: 1 uM, Verapamil: 100 uM) in membrane vesicles from MRP7-expressing HEK293 cells; conditions: Membrane vesicle
[7] = target: T1, ATP-binding cassette sub-family C member 10 (Homo sapiens); experiment: TP_TRANSPORTER: inhibition of E217betaG uptake (E217betaG: 1 uM, Sulfinpyrazone:30uM) in membrane vesicles from MRP7-expressing HEK293 cells; conditions: Membrane vesicle
[8] = target: T1, ATP-binding cassette sub-family C member 10 (Homo sapiens); experiment: TP_TRANSPORTER: inhibition of E217betaG uptake (E217betaG: 1 uM, VP-16: 30 uM) in membrane vesicles from MRP7-expressing HEK293 cells; conditions: Membrane vesicle
[9] = target: T1, ATP-binding cassette sub-family C member 10 (Homo sapiens); experiment: TP_TRANSPORTER: inhibition of E217betaG uptake (E217betaG: 1 uM, 17alpha-Ethynyl-17beta-Estradiol: 100 uM) in membrane vesicles from MRP7-expressing HEK293 cells; conditions: Membrane vesicle
[10] = target: T1, ATP-binding cassette sub-family C member 10 (Homo sapiens); experiment: TP_TRANSPORTER: inhibition of E217betaG uptake (E217betaG: 1 uM, Vincristine: 30 uM) in membrane vesicles from MRP7-expressing HEK293 cells; conditions: Membrane vesicle
[11] = target: T1, ATP-binding cassette sub-family C member 10 (Homo sapiens); experiment: TP_TRANSPORTER: inhibition of E217betaG uptake (E217betaG: 1 uM, MTX:100uM) in membrane vesicles from MRP7-expressing HEK293 cells; conditions: Membrane vesicle
[12] = target: T1, ATP-binding cassette sub-family C member 10 (Homo sapiens); experiment: TP_TRANSPORTER: inhibition of E217betaG uptake (E217betaG: 1 uM, Taxol: 30 uM) in membrane vesicles from MRP7-expressing HEK293 cells; conditions: Membrane vesicle
[13] = target: T1, ATP-binding cassette sub-family C member 10 (Homo sapiens); experiment: TP_TRANSPORTER: inhibition of E217betaG uptake (E217betaG: 1 uM, Sildefafil:100uM) in membrane vesicle from MRP7-expressing HEK293 cells
[14] = target: T1, ATP-binding cassette sub-family C member 10 (Homo sapiens); experiment: TP_TRANSPORTER: inhibition of E217betaG uptake (E217betaG: 1 uM, Estradiol-3-glucuronide: 100 uM) in membrane vesicles from MRP7-expressing HEK293 cells; conditions: Membrane vesicle
[15] = target: T1, ATP-binding cassette sub-family C member 10 (Homo sapiens); experiment: TP_TRANSPORTER: inhibition of E217betaG uptake (E217betaG: 1 uM, Glycholithocholate-3-sulfate: 30 uM) in membrane vesicles from MRP7-expressing HEK293 cells; conditions: Membrane vesicle
[16] = target: T1, ATP-binding cassette sub-family C member 10 (Homo sapiens); experiment: TP_TRANSPORTER: inhibition of E217betaG uptake (E217betaG: 1 uM, beta-Estradiol: 100 uM) in membrane vesicles from MRP7-expressing HEK293 cells; conditions: Membrane vesicle
[17] = target: T1, ATP-binding cassette sub-family C member 10 (Homo sapiens); experiment: TP_TRANSPORTER: inhibition of E217betaG uptake (E217betaG: 1 uM, Zaprinast: 100uM) in membrane vesicles from MRP7-expressing HEK293 cells; conditions: Membrane vesicle
[18] = target: T1, ATP-binding cassette sub-family C member 10 (Homo sapiens); experiment: TP_TRANSPORTER: inhibition of E217betaG uptake (E217betaG: 1 uM, 16alpha,17beta-Estriol 3-(beta-D-glucuronide): 100 uM) in membrane vesicles from MRP7-expressing HEK293 cells; conditions: Membrane vesicle
[19] = target: T1, ATP-binding cassette sub-family C member 10 (Homo sapiens); experiment: TP_TRANSPORTER: inhibition of E217betaG uptake (E217betaG: 1 uM, Doxorubicin: 30 uM) in membrane vesicles from MRP7-expressing HEK293 cells; conditions: Membrane vesicle
[20] = target: T1, ATP-binding cassette sub-family C member 10 (Homo sapiens); experiment: TP_TRANSPORTER: inhibition of E217betaG uptake (E217betaG: 1 uM, DNP-SG:10uM) in membrane vesicles from MRP7-expressing HEK293 cells; conditions: Membrane vesicle
[21] = target: T1, ATP-binding cassette sub-family C member 10 (Homo sapiens); experiment: TP_TRANSPORTER: inhibition of E217betaG uptake (E217betaG: 1 uM, Trequinsin: 100 uM) in membrane vesicles from MRP7-expressing HEK293 cells; conditions: Membrane vesicle

For `C[C@]12CC[C@@H]3c4ccc(OS(=O)(=O)O)cc4CC[C@H]3[C@@H]1C[C@@H](O)[C@@H]2O`, the Activity [1] was 49.4%.
With `CCCCC/C=C\C\C=C/C=C/C=C/[C@@H](SC[C@@H](NC(=O)CC[C@H](N)C(=O)O)C(=O)NCC(=O)O)[C@@H](O)CCCC(=O)O` the Activity [2] was 40.4%.
`C[C@H](CCC(=O)NCC(=O)O)[C@H]1CC[C@H]2[C@@H]3[C@H](O)C[C@@H]4C[C@H](O)CC[C@]4(C)[C@H]3C[C@H](O)[C@]12C` was tested, and the Activity [3] was 58.4%.
Work on `C[C@]12CC[C@@H]3c4ccc(O)cc4CC[C@H]3[C@@H]1C[C@@H](O[C@@H]1O[C@H](C(=O)O)[C@@H](O)[C@H](O)[C@H]1O)[C@@H]2O` yielded an Activity [4] of 53%.
With `C[C@]12CC[C@@H]3c4ccc(OS(=O)(=O)O)cc4CC[C@H]3[C@@H]1CC[C@@H]2O[C@@H]1O[C@H](C(=O)O)[C@@H](O)[C@H](O)[C@H]1O` the Activity [5] was 45.1%.
Compound `COc1ccc(CCN(C)CCCC(C#N)(c2ccc(OC)c(OC)c2)C(C)C)cc1OC` (stereo unspecified) has an Activity [6] of 62.3%.
`O=C1C(CC[S+]([O-])c2ccccc2)C(=O)N(c2ccccc2)N1c1ccccc1` (stereo unspecified) gave an Activity [7] of 39.5%.
For `COc1cc([C@@H]2c3cc4c(cc3[C@@H](O[C@@H]3O[C@@H]5CO[C@@H](C)O[C@H]5[C@H](O)[C@H]3O)[C@H]3COC(=O)[C@H]23)OCO4)cc(OC)c1O`, the Activity [8] was 49.5%.
`C#C[C@]1(O)CC[C@H]2[C@@H]3CCc4cc(O)ccc4[C@H]3CC[C@@]21C` gave an Activity [9] of 51.4%.
With `CC[C@]1(O)C[C@H]2CN(CCc3c([nH]c4ccccc34)[C@@](C(=O)OC)(c3cc4c(cc3OC)N(C=O)[C@H]3[C@@](O)(C(=O)OC)[C@H](OC(C)=O)[C@]5(CC)C=CCN6CC[C@]43[C@@H]65)C2)C1` the Activity [10] was 18.4%.
`CN(Cc1cnc2nc(N)nc(N)c2n1)c1ccc(C(=O)N[C@@H](CCC(=O)O)C(=O)O)cc1` showed an Activity [11] of 74%.
In the case of `CC(=O)O[C@H]1C(=O)[C@@]2(C)[C@H]([C@H](OC(=O)c3ccccc3)[C@]3(O)C[C@H](OC(=O)[C@H](O)[C@@H](NC(=O)c4ccccc4)c4ccccc4)C(C)=C1C3(C)C)[C@]1(OC(C)=O)CO[C@@H]1C[C@@H]2O`, the Activity [12] is reported as 22.1%.
`CCCc1nn(C)c2c(=O)[nH]c(-c3cc(S(=O)(=O)N4CCN(C)CC4)ccc3OCC)nc12` was tested, and the Activity [13] was 41%.
`C[C@]12CC[C@@H]3c4ccc(O[C@@H]5O[C@H](C(=O)O)[C@@H](O)[C@H](O)[C@H]5O)cc4CC[C@H]3[C@@H]1CC[C@@H]2O` gave an Activity [14] of 60.1%.
`C[C@H](CCC(=O)NCC(=O)O)[C@H]1CC[C@H]2[C@@H]3CC[C@@H]4C[C@H](OS(=O)(=O)O)CC[C@]4(C)[C@H]3CC[C@]12C` gave an Activity [15] of 41.8%.
`C[C@]12CC[C@@H]3c4ccc(O)cc4CC[C@H]3[C@@H]1CC[C@@H]2O` gave an Activity [16] of 60.7%.
`CCCOc1ccccc1-c1nc2[nH]nnc2c(=O)[nH]1` was tested, and the Activity [17] was 48.3%.
For `C[C@]12CC[C@@H]3c4ccc(O[C@@H]5O[C@H](C(=O)O)[C@@H](O)[C@H](O)[C@H]5O)cc4CC[C@H]3[C@@H]1C[C@@H](O)[C@@H]2O`, the Activity [18] was 58.5%.
For `COc1cccc2c1C(=O)c1c(O)c3c(c(O)c1C2=O)C[C@@](O)(C(=O)CO)C[C@@H]3O[C@H]1C[C@H](N)[C@H](O)[C@H](C)O1`, the Activity [19] was 18.2%.
With `N[C@@H](CCC(=O)N[C@H](CSc1ccc([N+](=O)[O-])cc1[N+](=O)[O-])C(=O)NCC(=O)O)C(=O)O` the Activity [20] was 46.4%.
For `COc1cc2c(cc1OC)-c1c/c(=N\c3c(C)cc(C)cc3C)n(C)c(=O)n1CC2`, the Activity [21] was 44.3%.
